This is an account of results in article PMC12067350, “Discovery of Thieno[3,2‑b]pyridine-5-carboxamide and 2,3-Difluorobenzamide Negative Allosteric Modulators of Metabotropic Glutamate Receptor Subtype 5” (ACS Medicinal Chemistry Letters, 2025).

Some results are limits rather than exact numbers.

Common to all, as to assay type: in vitro ADME
Data set [1] is described as follows: Intrinsic clearance in rat liver microsomes. The settings on record: for CLint scaled at 0.75 h, 1 µM: pH 7.4, rat liver microsomes; for rat CLhep: predicted hepatic clearance from in vitro rat microsomal data. On the procedure: Intrinsic Clearance in Rat and Human Liver Microsomes
The in vitro intrinsic clearance (CL int) was investigated in commercially obtained hepatic microsomes from rat and human donors using the substrate depletion (i.e., loss-of-parent vs. time, or t 1/2 method) approach with analyte detection via liquid chromatography-tandem mass spectrometry (LC-MS/MS). For each species, mean %parent remaining values at each time point were calculated from replicates raw data (analyte:IS peak area ratios) and used to determine in vitro t 1/2 and CLint.
Experiments were carried out using a robot-assisted (TECAN model Evo 200). Compound was incubated (1 µM final concentration) in buffer (100 mM potassium phosphate pH 7.4 with 3 mM MgCl2) containing hepatic microsomes (0.5 mg/mL final concentration) from multiple species, discretely, at 37 °C under constant orbital shaking. After 5 minutes (pre-incubation), reactions were initiated by addition of nicotinamide adenine dinucleotide phosphate (NADPH, 1 mM final concentration). At selected time intervals (0, 3, 7, 15, 25, and 45 minutes) post-addition of NADPH, aliquots (50 µL) were taken and placed into a 96-shallow-well plate containing ice cold acetonitrile (150 µL) with carbamazepine (IS, 50 nM). The plates were then centrifuged (3000 rcf at 4 °C) for 10 minutes. The supernatants were transferred to a new 96-shallow-well daughter plate and diluted (1:1 v/v) with water (Milli-Q filtered). The plates were then sealed in preparation for LC-MS/MS analysis (see below).
Raw LC-MS/MS peak area data generated from the assay samples were used to construct natural log-transformed %parent remaining vs. time plots (using t = 0 minute post-NADPH addition sample data as starting point set to 100%). In vitro compound half-life (t 1/2) values were obtained using the following […]
k is the slope from linear regression analysis of the natural log-transformed data (using means from Where all replicates at each time point). Resulting t 1/2 values were then used to calculate hepatic CLint values according to the following equation and with the use of species-specific scale-up factors for liver weight (grams) per total body weight (kg):
CL = 0.693 x 1 mL incubation x 45 mg microsomes x a gram liver
int in vitro t1/2 0.5 mg microsomes 1 gram liver kg body wt aScale-up factors used are 45 (rat) and 20 (human).1
Predicted hepatic clearance (CLhep) was calculated using the following equation: […]
Qh represents hepatic blood flow (mL/min/kg): 21 for human, 70 for rat, and 90 for mouse.

Data set [2] is described as follows: Binding in plasma from human (equilibrium dialysis). Particulars: fraction unbound. On the procedure:
Binding in plasma from rat and human.
Determination of compounds’ fraction unbound (f u) in plasma from rat and human was conducted in vitro via equilibrium dialysis using HTDialysis membrane plates. Dialysis membranes (four paired strips per HTD assay) were hydrated as described by the manufacturer and inserted into the HTD plate, which was assembled and prepared for sample addition by the dispensing of blank buffer (DPBS, 100 µL/well) into the ‘top half’ of each membrane-split well. Each compound was diluted into plasma from each species (5 µM final concentration), which was aliquoted in triplicate to the ‘bottom half’ of the prepared HTD plate wells. The HTD plate was sealed and incubated for 6 hours at 37 °C. Following incubation, each well (both top and bottom halves) were transferred (20 µL) to the corresponding wells of a 96-shallow-well (V-bottom) plate. The daughter plates were then matrix-matched (buffer side wells received equal volume of plasma, and plasma side wells received equal volume of buffer), and extraction solution (120 µL; acetonitrile containing 50 nM carbamazepine as IS) was added to all wells of both daughter plates to precipitate protein and extract test article. The plates were then sealed and centrifuged (3500 rcf) for 10 minutes at ambient temperature. Supernatant (60 µL) from each well of the daughter plates was then transferred to the corresponding wells of new daughter plates (96-shallow-well, V bottom) containing water (Milli-Q, 60 µL/well), and the plates were sealed in preparation for LC-MS/MS analysis (see below). fu was calculated as (analyte to IS MS peak area ratio from Trans-buffer side) / (analyte to IS MS peak area ratio from Cis-plasma side). Mean values for each species were calculated from 3 replicates. […]
Mean values for each species were calculated from 3 replicates.
In general terms: In equilibrium dialysis only unbound substance equilibrates across the membrane.

The target in a further data set is T1, CYP2D6 (Homo sapiens, UniProt P10635).
T1 construct: from tissue; host or cells: human liver microsomes
Nature of the data set: Cytochrome P450 inhibition using human liver microsomes, CYP2D6. The settings on record: read-out: CYP 450 IC50, 2D6. The method, then:
(§1) Cytochrome P450 inhibition using Liver Microsomes.
(§2) The ability of compounds to inhibit cytochrome P450s (CYPs) was tested using human liver microsomes and a cocktail of substrates specific for CYP1A2, 2C9, 2D6 and 3A4. Compounds were incubated at 37C in presence of human liver microsomes (0.1 mg/ml) at 30, 10, 3, 1, 0.3 and 0.1 µM. A cocktail of substrate was also added for each CYP tested: phenacetin (10 µM, CYP1A2), diclofenac (5 µM, CYP2C9), dextromethorphan (5 µM, CYP2D6) and midazolam (2 µM, CYP3A4). HLM were also incubated with the control inhibitor miconazole at 3, 1, 0.3, 0.1, 0.03 and 0.01 µM. […]
(§3) The concentrations of CYP-specific metabolites generated at the end of the reaction were quantified by mass spectrometry using standard curves for each metabolite: acetaminophen (CYP1A2), 4-hydroxydiclofenac (CYP2C9), dextrophan (CYP2D6) and 1-hydroxymidazolam (CYP3A4). A concentration response curve for each metabolite was generated and IC50s were calculated using Prism. The LC-MS/MS transitions for metabolite quantifications are as follows. […]
(§4) Prepared samples were injected (10 µL each) onto an AB Sciex Triple Quad 4500 mass spectrometer system with an Agilent 1260 Infinity II pump and autosampler. […] Quantitation of compounds was performed via AB Sciex Multiquant software using the raw analyte:IS peak area ratios. […]
A general note: Liver microsomes are vesicles of endoplasmic reticulum, rich in cytochrome P450 enzymes.

Another data set concerns the target T2, CYP3A4 (Homo sapiens, UniProt P08684).
T2 construct: from tissue; host or cells: human liver microsomes
Put plainly: Cytochrome P450 inhibition using human liver microsomes, CYP3A4. The settings on record: read-out: CYP 450 IC50, 3A4. The method, then:
as §1, §2, §3, §4

T1 sequence (P10635 whole entry): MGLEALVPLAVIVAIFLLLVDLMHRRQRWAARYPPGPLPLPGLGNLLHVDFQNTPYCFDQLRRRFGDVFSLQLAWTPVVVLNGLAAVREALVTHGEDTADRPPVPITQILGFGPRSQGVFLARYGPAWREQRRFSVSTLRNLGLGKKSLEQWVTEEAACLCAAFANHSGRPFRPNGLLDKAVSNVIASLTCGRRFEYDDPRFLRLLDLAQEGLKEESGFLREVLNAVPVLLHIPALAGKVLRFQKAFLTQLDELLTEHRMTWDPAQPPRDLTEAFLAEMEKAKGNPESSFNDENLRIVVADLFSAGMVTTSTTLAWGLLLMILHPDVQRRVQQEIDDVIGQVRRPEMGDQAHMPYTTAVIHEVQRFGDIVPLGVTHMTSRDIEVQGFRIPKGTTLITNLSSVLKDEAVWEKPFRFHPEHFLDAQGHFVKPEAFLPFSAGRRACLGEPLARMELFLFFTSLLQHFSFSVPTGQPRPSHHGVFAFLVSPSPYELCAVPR
T2 sequence (P08684 whole entry): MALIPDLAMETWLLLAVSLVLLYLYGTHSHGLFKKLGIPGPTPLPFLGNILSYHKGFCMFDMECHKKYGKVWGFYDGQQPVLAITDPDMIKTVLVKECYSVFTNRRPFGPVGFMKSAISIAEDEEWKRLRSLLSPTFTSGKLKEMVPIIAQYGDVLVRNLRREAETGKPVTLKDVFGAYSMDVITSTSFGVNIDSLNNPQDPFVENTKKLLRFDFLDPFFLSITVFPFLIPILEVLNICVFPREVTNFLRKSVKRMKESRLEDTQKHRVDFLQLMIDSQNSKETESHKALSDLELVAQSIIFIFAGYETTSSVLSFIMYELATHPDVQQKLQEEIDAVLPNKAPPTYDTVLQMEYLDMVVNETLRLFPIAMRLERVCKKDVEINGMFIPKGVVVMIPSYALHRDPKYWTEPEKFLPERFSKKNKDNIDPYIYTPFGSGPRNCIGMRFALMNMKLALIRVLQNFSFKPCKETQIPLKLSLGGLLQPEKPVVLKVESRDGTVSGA

With `Cc1csc(NC(=O)c2cc(O[C@@H]3CCOC3)c3sccc3n2)n1` [19aA], in data set [1], the CLint scaled (as a rule, a measure of how fast metabolising enzymes remove a compound, apart from limits set by blood flow) at 0.75 h, 1 µM was 143 mL/min/kg and the “rat CLhep” value is 47.0 mL/min/kg. The “human f u,plasma” value in data set [2] turned out to be 0.020. Further, the IC50 (commonly the concentration at which inhibition is half-maximal) on CYP2D6 is more than 30 µM. The half-maximal inhibitory concentration (IC50) at CYP3A4 is more than 30 µM.
Take `Cc1csc(NC(=O)c2cc(O[C@@H]3CCOC3)cc(F)c2F)n1` [27cA]: in data set [1], the intrinsic clearance (CLint scaled) at 0.75 h, 1 µM came to 116 mL/min/kg. The “rat CLhep” value in data set [1] is recorded as 43.7 mL/min/kg. In data set [2], the “human f u,plasma” value was determined as 0.069. For the same compound, the half-inhibitory concentration (IC50) at CYP2D6 and on CYP3A4 was more than 30 µM in each case.
